Results taken from US20180318275A1, “COMBINATION THERAPY USING PI3K INHIBITOR AND MDM2 INHIBITOR” (Novartis AG, priority 2015, published 2018).

Key:
Assay in all cases: Cell proliferation (cell count by microscopy), Example 3
Assay type in all cases: cell-based
GP2d = settings: single agent, 72 h, cell count relative to DMSO, unit (micromolar, top dose 10 μM)
Procedure: (§1) COMPOUNDS A, B and C were dissolved in 100% DMSO (Sigma, Catalog number D2650) at concentrations of 20 mM and stored at −20° C. until use. Compounds were arrayed in drug master plates (Greiner, Catalog number 788876) and serially diluted 3-fold (7 steps) at 2000× concentration.
(§2) To test the effect of the combination of COMPOUND A, COMPOUND B, and COMPOUND C on cell proliferation cells were plated in black 384-well microplates with clear bottom (Matrix/Thermo Scientific, Catalog number 4332) in 50 μL media per well at cell densities between 500 and 1250 cells/well (Table 1 above) and allowed to incubate at 37 degrees, 5% CO2 for 24 h. After 24 h one 384-well plate per cell line was prepared for cell counting by microscopy (see below) without receiving treatment (=‘baseline’). The other cell plates were treated by transferring 25 nL of the 2000× compound from drug master plates using an ATS acoustic liquid dispenser (ECD Biosystems) and resulting in a final 1× concentration. COMPOUND A was used over a final concentration range of 13 nM-10 μM, COMPOUND B was used over a final concentration range of 13 nM-10 μM, and COMPOUND C was used over a final concentration range of 13 nM-10 μM (7 1:3 dilution steps). In order to assess the effect of the triple combination all individual COMPOUNDS (A, B, C), all three pair wise combinations (A+B, A+C, B+C), and the triple combination (A+B+C) were tested in the same experiment. Pair wise combinations and the triple combination were tested at a fixed ratio of 1:1 (for drug pairs) and 1:1:1 (for the drug triple) at each dilution resulting in 7 combination conditions per treatment. […] After compound addition 50 nL of 2 mM CellEvent Caspase-3/7 Green Detection Reagent (ThermoFisher, Catalog number C10423) were added to one of the three replicates using the HP D300 Digital Dispenser (Tecan). Caspase 3/7 induction was measured as a proxy for apoptosis induced by the treatments. Cells were treated for 72 h to 96 h depending on their doubling time (Table 1), and Caspase 3/7 activation was measured every 24 h by microscopy using an InCell Analyzer 2000 (GE Healthcare) equipped with a 4× objective and FITC excitation/emission filters. At the end of the treatment cells were prepared for cell counting by microscopy. Cells were fixed and permeabilised for 45 minutes in 4% PFA (Electron Microscopy Sciences, Catalog number 15714), 0.12% TX-100 (Electron Microscopy Sciences, Catalog number 22140) in PBS (Boston Bioproducts, Catalog number BM-220). After washing cells three times with PBS their DNA was stained for 30 minutes with Hoechst 33342 (ThermoFisher, Catalog number H3570) at a final concentration of 4 μg/mL. Cells were washed three times with PBS and then plates were heat-sealed using a PlateLoc (Agilent Technologies) with aluminum seals (Agilent Technologies, Catalog number 06644-001) and stored at 4° C. until imaging. All cells per well/treatment were captured in a single image by fluorescence microscopy using an InCell Analyzer 2000 (GE Healthcare) equipped with a 4× objective and DAPI excitation/emission filters.
(§3) Images were analyzed after adapting previously described methods (Horn, Sandmann et al. 2011, Nat. Methods 8(4): 341-346) and using the Bioconductor package EBImage in R (Pau, Fuchs et al. 2010, Bioinformatics 26(7):979-981). Objects in both channels, DAPI (for Hoechst/DNA) and FITC (for Caspase 3/7), were segmented separately by adaptive thresholding and counted. A threshold for Caspase 3/7 positive objects was defined manually per cell line after comparing negative controls (DMSO) and positive controls (Staurosporine). By analyzing 17 additional object/nuclei features in the DNA channel (shape and intensity features) debris/fragmented nuclei were identified. To this end per cell line the distributions of the additional features between positive controls (Staurosporine) and negative controls (DMSO) were compared manually. […]

HCT-116 = settings: Homo sapiens; HCT-116, single agent, 72 h, cell count relative to DMSO
Procedure: as §1, §2, §3

LS-180 = settings: Homo sapiens, LS180; LS-160 (so in the source), single agent, 72 h, cell count relative to DMSO
Procedure: as §1, §2, §3

LoVo = settings: Homo sapiens, single agent, 96 h, cell count relative to DMSO
Procedure: as §1, §2, §3

RKO = settings: Homo sapiens, single agent, 72 h, cell count relative to DMSO
Procedure: as §1, §2, §3

IC50 (HCT-116)	IC50 (LoVo)	Compound	IC50 (GP2d)	IC50 (LS-180)	IC50 (RKO)
9800 nM	> 10000 nM	Cc1nc(NC(=O)N2CCC[C@H]2C(N)=O)sc1-c1ccnc(C(C)(C)C(F)(F)F)c1 [COMPOUND A, (S)-Pyrrolidine-1,2-dicarboxylic acid 2-amide 1-({4-methyl-5-[2-(2,2,2-trifluoro-1,1-dimethyl-ethyl)-pyridin-4-yl]-thiazol-2-yl}-amide)]	500 nM	> 10000 nM	3900 nM
100 nM	600 nM	COc1cc2c(cc1OC(C)C)[C@H](c1ccc(Cl)cc1)N(c1ccc(N(C)C[C@H]3CC[C@H](N4CCN(C)C(=O)C4)CC3)cc1)C(=O)C2 [COMPOUND B, (S)-1-(4-Chloro-phenyl)-7-isopropoxy-6-methoxy-2-(4-{methyl-[4-(4-methyl-3-oxo-piperazin-1-yl)-trans-cyclohexylmethyl]-amino}-phenyl)-1,4-dihydro-2H-isoquinolin-3-one]	800 nM	700 nM	1200 nM
